According to ChEMBL document CHEMBL3351479, “Novel acylureidoindolin-2-one derivatives as dual Aurora B/FLT3 inhibitors for the treatment of acute myeloid leukemia” (Eur J Med Chem, 2014):

Experiments:
Aurora kinase B [1] = target: T1, Aurora kinase B (Homo sapiens, UniProt Q96GD4); assay: Inhibition of Aurora B (unknown origin) using HLRRASLG substrate at 1 uM
THP-1 [2] = assay: Cytotoxicity against human THP1 cells assessed as cell viability after 48 hrs by MTT assay; format: functional, cell-based; conditions: Homo sapiens, THP-1, 48 h
[3] = Cytotoxicity against human HL60 cells assessed as cell viability after 48 hrs by MTT assay; format: functional, cell-based; conditions: HL-60, 48 h
MOLM-13 [4] = assay: Cytotoxicity against human MOLM13 cells assessed as cell viability after 48 hrs by MTT assay; format: functional, cell-based; conditions: MOLM-13, 48 h
[5] = target: Receptor-type tyrosine-protein kinase FLT3 (Homo sapiens) (UniProt P36888); assay: Inhibition of FLT3 (unknown origin) using EAIYAAPFAKKK substrate at 1 uM
MV4-11 [6] = assay: Cytotoxicity against human MV4-11 cells assessed as cell viability after 48 hrs by MTT assay; format: functional, cell-based; conditions: Homo sapiens, MV4-11, 48 h
MV4-11 [7] = assay: Cytotoxicity against human MV4-11 cells assessed as cell viability at 1 uM after 48 hrs by MTT assay; format: functional; conditions: MV4-11, 48 h, read-out: Activity
[8] = Cytotoxicity against human HL60 cells assessed as cell viability at 1 uM after 48 hrs by MTT assay; format: functional; conditions: HL-60, 48 h, read-out: Activity
MOLM-13 [9] = assay: Cytotoxicity against human MOLM13 cells assessed as cell viability at 1 uM after 48 hrs by MTT assay; format: functional; conditions: MOLM-13, 48 h, read-out: Activity
THP-1 [10] = assay: Cytotoxicity against human THP1 cells assessed as cell viability at 1 uM after 48 hrs by MTT assay; format: functional; conditions: THP-1, 48 h, read-out: Activity
Aurora kinase B [11] = target: T1, Aurora kinase B; assay: Inhibition of Aurora B (unknown origin) using HLRRASLG substrate
[12] = target: T2, Receptor-type tyrosine-protein kinase FLT3 (Homo sapiens, UniProt P36888); assay: Inhibition of FLT3 (unknown origin) using EAIYAAPFAKKK substrate
T2 sequence (P36888 whole entry): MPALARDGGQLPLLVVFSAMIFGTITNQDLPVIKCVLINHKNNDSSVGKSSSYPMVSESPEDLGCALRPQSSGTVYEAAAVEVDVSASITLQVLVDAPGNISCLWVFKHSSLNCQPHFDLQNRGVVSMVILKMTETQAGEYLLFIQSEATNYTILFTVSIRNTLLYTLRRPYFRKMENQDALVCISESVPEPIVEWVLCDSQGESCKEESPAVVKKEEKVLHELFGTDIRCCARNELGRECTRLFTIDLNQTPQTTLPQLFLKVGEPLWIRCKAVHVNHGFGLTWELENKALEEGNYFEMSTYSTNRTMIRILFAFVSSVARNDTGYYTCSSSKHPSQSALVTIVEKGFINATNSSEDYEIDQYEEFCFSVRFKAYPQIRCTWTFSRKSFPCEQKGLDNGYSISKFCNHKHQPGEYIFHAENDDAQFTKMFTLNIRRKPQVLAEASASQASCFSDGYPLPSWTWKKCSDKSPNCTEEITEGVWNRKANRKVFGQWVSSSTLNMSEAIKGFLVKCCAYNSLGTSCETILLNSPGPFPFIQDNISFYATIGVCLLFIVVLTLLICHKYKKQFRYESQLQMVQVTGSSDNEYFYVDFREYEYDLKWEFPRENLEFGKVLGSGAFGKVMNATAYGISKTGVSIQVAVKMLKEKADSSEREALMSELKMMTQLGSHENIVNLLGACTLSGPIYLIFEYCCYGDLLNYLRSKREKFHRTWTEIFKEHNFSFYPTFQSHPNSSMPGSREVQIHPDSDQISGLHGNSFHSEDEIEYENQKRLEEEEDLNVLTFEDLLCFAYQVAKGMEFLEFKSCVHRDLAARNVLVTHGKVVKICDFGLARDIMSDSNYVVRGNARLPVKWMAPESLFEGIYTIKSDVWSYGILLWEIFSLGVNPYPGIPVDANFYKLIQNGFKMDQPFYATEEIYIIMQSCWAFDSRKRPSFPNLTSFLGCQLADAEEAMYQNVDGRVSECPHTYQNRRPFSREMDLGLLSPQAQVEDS

[13] = Permeability coefficient of the compound at pH 7.4 by PAMPA-GIT assay; format: ADME; conditions: read-out: Peff
[14] = Ratio of solubility in PBS to solubility in DMSO; format: physicochemical

T1 sequence (Q96GD4 whole entry): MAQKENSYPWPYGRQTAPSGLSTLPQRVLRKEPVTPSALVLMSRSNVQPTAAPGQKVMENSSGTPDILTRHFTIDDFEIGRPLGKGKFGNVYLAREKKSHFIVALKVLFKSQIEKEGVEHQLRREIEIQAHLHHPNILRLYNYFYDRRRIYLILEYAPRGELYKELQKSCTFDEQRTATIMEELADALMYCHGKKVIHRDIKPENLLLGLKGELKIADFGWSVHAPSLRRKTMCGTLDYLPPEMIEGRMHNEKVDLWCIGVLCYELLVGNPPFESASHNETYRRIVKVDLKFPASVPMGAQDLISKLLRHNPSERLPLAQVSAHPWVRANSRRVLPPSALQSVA

SMILES	inhibition (Aurora kinase B [1]) [%]	inhibition [5] [%]	IC50 (Aurora kinase B [11]) [nM]	IC50 [12] [nM]	Papp [13] [×10⁻⁶ cm/s]	Ratio [14]	IC50 (THP-1 [2]) [nM]	IC50 [3] [nM]	IC50 (MOLM-13 [4]) [nM]	IC50 (MV4-11 [6]) [nM]	viability at 1 µM (MV4-11 [7]) [%]	viability at 1 µM [8] [%]	viability at 1 µM (MOLM-13 [9]) [%]	viability at 1 µM (THP-1 [10]) [%]
COc1ccc(C(=O)NC(=O)Nc2ccc3c(c2)NC(=O)/C3=C/c2ccc(Cl)c(Cl)c2)cc1	9	19	–	–	–	–	> 500	> 500	> 500	> 500	71	63	69	68
COc1ccc(C(=O)NC(=O)Nc2ccc3c(c2)NC(=O)/C3=C/c2cccs2)cc1	–	–	21.5	> 1000	–	–	375	300	> 500	292	–	–	–	–
COc1ccc(C(=O)NC(=O)Nc2cccc3c2NC(=O)/C3=C\c2ccc[nH]2)cc1	7	7	–	–	–	–	> 500	488	> 500	> 500	78	–	72	53
COc1ccc(C(=O)NC(=O)Nc2ccc3c(c2)NC(=O)/C3=C/c2ccco2)cc1	44	15	–	–	–	–	> 500	> 500	> 500	> 500	70	64	62	74
COc1ccc(C(=O)NC(=O)Nc2cc3c(cc2F)/C(=C/c2[nH]c(C)c(CCC(=O)O)c2C)C(=O)N3)cc1	–	–	–	> 1000	–	–	64.7	28.8	30.1	26.1	–	–	–	–
COc1ccc(C(=O)NC(=O)Nc2ccc3c(c2)NC(=O)/C3=C/c2ccc(Cl)cc2)cc1	13	6	–	–	–	–	> 500	> 500	> 500	> 500	97	77	101	83

The next lines start with results.

inhibition (Aurora kinase B [1]) [%]	inhibition [5] [%]	IC50 (Aurora kinase B [11]) [nM]	IC50 [12] [nM]	Papp [13] [×10⁻⁶ cm/s]	Ratio [14]	SMILES	IC50 (THP-1 [2]) [nM]	IC50 [3] [nM]	IC50 (MOLM-13 [4]) [nM]	IC50 (MV4-11 [6]) [nM]	viability at 1 µM (MV4-11 [7]) [%]	viability at 1 µM [8] [%]	viability at 1 µM (MOLM-13 [9]) [%]	viability at 1 µM (THP-1 [10]) [%]
56	43	–	–	–	–	COc1ccc(/C=C2/C(=O)Nc3cc(NC(=O)NC(=O)c4ccc(OC)cc4)ccc32)cc1	382	336	238	228	–	–	–	–
–	–	> 1000	–	–	–	COc1ccc(C(=O)NC(=O)Nc2ccc3c(c2)NC(=O)/C3=C\c2[nH]c(C)c(-c3ccccc3)c2C)cc1	> 500	> 500	> 500	> 500	51	65	51	73
–	–	–	–	2.49	0.58	COc1ccc(C(=O)NC(=O)Nc2ccc3c(c2)NC(=O)/C3=C\c2[nH]c(C)c(C(=O)O)c2C)c(F)c1	79.5	6.4	5.2	5.3	–	–	–	–
–	–	–	–	–	0.57	COc1ccc(C(=O)NC(=O)Nc2ccc3c(c2)NC(=O)/C3=C\c2[nH]c(C)c(CCC(=O)O)c2C)cc1	52.8	6.4	5.2	5.3	–	–	–	–
–	–	–	–	0.23	0.32	COc1ccc(C(=O)NC(=O)Nc2ccc3c(c2)NC(=O)/C3=C\c2[nH]c(C)c(C(=O)O)c2C)cc1	78.4	15.8	9	12	–	–	–	–
–	–	> 1000	> 1000	–	–	COc1ccc(C(=O)NC(=O)Nc2ccc3c(c2)NC(=O)/C3=C\c2ccc(C(=O)O)[nH]2)cc1	> 500	> 500	> 500	> 500	62	65	55	65
–	–	–	> 1000	–	–	COc1cc(OC)cc(C(=O)NC(=O)Nc2ccc3c(c2)NC(=O)/C3=C\c2ccc[nH]2)c1	300	251	114	150	–	–	–	–
